Data published in US4156016A, “Indole compounds and process for their preparation” (Hoffmann-La Roche Inc., priority 1977, dated 1979).
Like-named read-outs stand apart in the source and are kept apart here.

Tests used:
[1] = Toxicity (general statement)
ADP induced aggregation = test: Inhibition of ADP-induced platelet aggregation (second wave) in human platelet-rich plasma; format: cell-based; conditions: for inhibition at 2.5 µM / inhibition at 5 µM / inhibition at 10 µM / inhibition at 20 µM / inhibition at 50 µM: Homo sapiens, Platelet, read-out: Percent Inhibition
Protocol: Venous blood was collected from human volunteers in siliconized 20 ml. […] Platelet rich plasma (PRP) was separated from the red blood cells by centrifugation at 180×g for 15 minutes at room temperature. Platelet poor plasma (PPP) was prepared by centrifuging PRP at 1000×g for 2 minutes.
Techniques established by Born et al., J. Physiol. […] PRP (1 ml.) was added to a siliconized cuvette containing a siliconized stirring bar and placed in a densitometer maintained at 37° C. and stirred at 1000 RPM. Various concentrations of test compounds were added in 50 μl of saline and incubated with PRP for 5 minutes. Aggregation was initiated by the addition of sufficient concentrations of ADP (Sigma Chemical Co.), epinephrine HCl (Parke, Davis & Co., Detroit, Michigan), or human mammary gland collagen (obtained from Roosevelt Hospital, N.Y.) to give about 60% of maximum aggregation response. The light transmission through PPP was used to determine maximum response. The percent inhibition of aggregation caused by the drug was calculated from the strip chart recordings at the point of maximum collagen response.

Acute toxicity in mice = conditions: mouse, in vivo
Protocol: CF-IS mice of both sexes weighing 17-25 grams were used. The compounds were ground in a mortar and suspended in 5% gum acacia for oral or intraperitoneal administration. Eight to ten mice were used per dose level. […] The LD50 was calculated by the method of Miller et al., Proc. Soc. Exp. Biol. Med., 57, pages 261-264 (1944).

Prostaglandin synthetase = target: T1, Prostaglandin synthetase (Ovis aries, UniProt P05979); test: Prostaglandin synthetase inhibition; format: biochemical; conditions: read-out: PG synthetase IC50
T1 construct: from tissue
T1 sequence (P05979 25-600): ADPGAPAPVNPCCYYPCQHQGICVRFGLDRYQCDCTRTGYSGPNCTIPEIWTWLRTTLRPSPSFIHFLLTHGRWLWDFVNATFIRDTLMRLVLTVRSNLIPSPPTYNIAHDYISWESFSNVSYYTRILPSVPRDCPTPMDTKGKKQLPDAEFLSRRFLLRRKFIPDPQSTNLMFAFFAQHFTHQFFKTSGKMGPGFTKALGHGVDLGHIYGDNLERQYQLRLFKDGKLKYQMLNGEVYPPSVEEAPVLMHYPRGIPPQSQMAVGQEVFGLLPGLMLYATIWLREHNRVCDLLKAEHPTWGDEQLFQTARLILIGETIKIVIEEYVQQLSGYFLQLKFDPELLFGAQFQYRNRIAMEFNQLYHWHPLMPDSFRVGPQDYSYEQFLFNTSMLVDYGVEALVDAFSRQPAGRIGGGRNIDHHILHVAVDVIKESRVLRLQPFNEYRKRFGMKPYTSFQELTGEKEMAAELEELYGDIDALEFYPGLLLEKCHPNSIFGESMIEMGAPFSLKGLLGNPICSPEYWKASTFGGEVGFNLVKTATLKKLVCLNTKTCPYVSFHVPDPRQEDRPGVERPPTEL

In the case of `N#Cc1[nH]c2ccc(C(O)(C(F)(F)F)C(F)(F)F)cc2c1-c1ccccc1` [nitrile, 3-Phenyl-5-[2,2,2-trifluoro-1-hydroxy-1-(trifluoromethyl)ethyl]indole-2-carbonitrile], the “toxicity (in words)” value [1] is reported as “low in toxicity”, the Δ light transmission (ADP induced aggregation; 2.5 μM, Expt. I) is reported as 60 units and the Δ light transmission (ADP induced aggregation; 2.5 μM, Expt. II) is reported as 54 units. It also gave a Δ light transmission (ADP induced aggregation; 5 μM, Expt. I) of 50 units, a Δ light transmission (ADP induced aggregation; 5 μM, Expt. II) of 44 units and a Δ light transmission (ADP induced aggregation; 10 μM, Expt. I) of 11 units. The Δ light transmission (ADP induced aggregation; 10 μM, Expt. II) was 14 units, the Δ light transmission (ADP induced aggregation; 20 μM, Expt. I) was 0 units and the Δ light transmission (ADP induced aggregation; 20 μM, Expt. II) was 0 units. It also gave a Δ light transmission (ADP induced aggregation; 50 μM, Expt. I) of 0 units, a Δ light transmission (ADP induced aggregation; 50 μM, Expt. II) of 0 units and an inhibition at 2.5 µM (ADP induced aggregation; 2.5 μM, Expt. I) of 0%. The inhibition at 2.5 µM (ADP induced aggregation; 2.5 μM, Expt. II) was 1.8%, the inhibition at 5 µM (ADP induced aggregation; 5 μM, Expt. I) was 16.7% and the inhibition at 5 µM (ADP induced aggregation; 5 μM, Expt. II) was 20%. It also gave an inhibition at 10 µM (ADP induced aggregation; 10 μM, Expt. I) of 18.6%, an inhibition at 10 µM (ADP induced aggregation; 10 μM, Expt. II) of 74.5% and an inhibition at 20 µM (ADP induced aggregation; 20 μM, Expt. I) of 100%. For the same molecule, the inhibition at 20 µM (ADP induced aggregation; 20 μM, Expt. II) was 100%, the inhibition at 50 µM (ADP induced aggregation; 50 μM, Expt. I) was 100% and the inhibition at 50 µM (ADP induced aggregation; 50 μM, Expt. II) was 100%. It also gave an IC50 (ADP induced aggregation; incubation in human citrated platelet-rich plasma) of 7 µM, an LD50 at 120 h (Acute toxicity in mice; ip) of 750 mg/kg and an LD50 at 120 h (Acute toxicity in mice; po) greater than 1000 mg/kg. The IC50 (Prostaglandin synthetase) was 0.5 µM.
